# Assay results from ChEMBL document CHEMBL1201862, “PubChem BioAssay data set” (2004).
# “And” between values parts separate entries of the source, which are not always exact repeats. Identical values can stand only once.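 The compound was tested at five concentrations on cells cultured in 96-well plates, with a 48-hour exposure period. GI50 = concentration required for 50% inhibition of growth.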 The source made the active and inactive calls. Cut-off read from the data, not from the text of the source: active = GI50 up to about 1.1 µM and inactive = higher.
# Columns and labels:
# Test in all cases: DTP human tumour cell line panel, 48 h
# SR = tested on: SR
# UACC-257 = tested on: UACC-257
# IGROV-1 = tested on: IGROV-1
# M14 = tested on: M14
# UO-31 = tested on: UO-31
# TK-10 = tested on: TK-10
# RXF 393 = tested on: RXF 393
# LOX IMVI = tested on: LOX IMVI
# HL-60 = tested on: HL-60
# NCI-H23 = tested on: NCI-H23
# NCI-H226 = tested on: NCI-H226
# DU-145 = tested on: DU-145
# K562 = tested on: K562
# SK-OV-3 = tested on: SK-OV-3
# SN12C = tested on: SN12C
# MCF7 = tested on: MCF7
# HCT-116 = tested on: HCT-116
# MDA-MB-231 = tested on: MDA-MB-231
# SK-MEL-5 = tested on: SK-MEL-5
# SF-268 = tested on: SF-268
# CAKI-1 = tested on: CAKI-1
# NCI-H460 = tested on: NCI-H460
# OVCAR-8 = tested on: OVCAR-8
# PC-3 = tested on: PC-3
# OVCAR-5 = tested on: OVCAR-5
# SNB-19 = tested on: SNB-19
# Hs-578T = tested on: Hs-578T
# KM12 = tested on: KM12
# U-251 = tested on: U-251
# BT-549 = tested on: BT-549
# 786-0 = tested on: 786-0
# RPMI-8226 = tested on: RPMI-8226
# A549 = tested on: A549
# A498 = tested on: A498
# MDA-N = tested on: MDA-N
# MOLT-4 = tested on: MOLT-4
# HOP-62 = tested on: HOP-62
# SK-MEL-28 = tested on: SK-MEL-28
# Malme-3M = tested on: Malme-3M
# OVCAR-4 = tested on: OVCAR-4
# COLO 205 = tested on: COLO 205
# HCC 2998 = tested on: HCC 2998
# ACHN = tested on: ACHN
# SF-539 = tested on: SF-539
# MDA-MB-435 = tested on: MDA-MB-435
# HT-29 = tested on: HT-29
# SW-620 = tested on: SW-620
# OVCAR-3 = tested on: OVCAR-3
# EKVX = tested on: EKVX
# NCI/ADR-RES = tested on: NCI/ADR-RES
# CCRF-CEM = tested on: CCRF-CEM
# HCT-15 = tested on: HCT-15
# UACC-62 = tested on: UACC-62
# SNB-75 = tested on: SNB-75
# SF-295 = tested on: SF-295
# SK-MEL-2 = tested on: SK-MEL-2
# NCI-H522 = tested on: NCI-H522
smiles,measurement,setting,value
CC(C)C1=C(Cc2ccccc2)C(=O)O/C1=C\c1cc(Cl)c(O)c(Cl)c1,GI50,SR,21.8 µM (inactive)
same,GI50,UACC-257,16.9 µM (inactive)
same,GI50,IGROV-1,19.4 µM (inactive)
same,GI50,M14,19.1 µM (inactive)
same,GI50,UO-31,14.1 µM (inactive)
same,GI50,TK-10,26 µM (inactive)
same,GI50,RXF 393,16.4 µM (inactive)
same,GI50,LOX IMVI,17.4 µM (inactive)
same,GI50,HL-60,16.3 µM (inactive)
same,GI50,NCI-H23,13.8 µM (inactive)
same,GI50,NCI-H226,20.3 µM (inactive)
same,GI50,DU-145,16 µM (inactive)
same,GI50,K562,17.4 µM (inactive)
same,GI50,SK-OV-3,19.2 µM (inactive)
same,GI50,SN12C,17.2 µM (inactive)
same,GI50,MCF7,27.9 µM (inactive)
same,GI50,HCT-116,18.2 µM (inactive)
same,GI50,MDA-MB-231,16.9 µM (inactive)
same,GI50,SK-MEL-5,18.7 µM (inactive)
same,GI50,SF-268,22.6 µM (inactive)
same,GI50,CAKI-1,15.8 µM (inactive)
same,GI50,NCI-H460,18.2 µM (inactive)
same,GI50,OVCAR-8,20.5 µM (inactive)
same,GI50,PC-3,16.9 µM (inactive)
same,GI50,OVCAR-5,21.7 µM (inactive)
same,GI50,SNB-19,17.1 µM (inactive)
same,GI50,Hs-578T,21.8 µM (inactive)
same,GI50,KM12,16.7 µM (inactive)
same,GI50,U-251,17.7 µM (inactive)
same,GI50,BT-549,> 10 µM (inactive)
same,GI50,786-0,17.1 µM (inactive)
same,GI50,RPMI-8226,17.3 µM (inactive)
same,GI50,A549,21.6 µM (inactive)
same,GI50,A498,23.7 µM (inactive)
same,GI50,MDA-N,18.3 µM (inactive)
same,GI50,MOLT-4,21.2 µM (inactive)
same,GI50,HOP-62,20.2 µM (inactive)
same,GI50,SK-MEL-28,18.5 µM (inactive)
same,GI50,Malme-3M,16.7 µM (inactive)
same,GI50,OVCAR-4,15.6 µM (inactive)
same,GI50,COLO 205,17.4 µM (inactive)
same,GI50,HCC 2998,18.6 µM (inactive)
same,GI50,ACHN,17.3 µM (inactive)
same,GI50,SF-539,21.5 µM (inactive)
same,GI50,MDA-MB-435,17.3 µM (inactive)
same,GI50,HT-29,16.9 µM (inactive)
same,GI50,SW-620,23.1 µM (inactive)
same,GI50,OVCAR-3,14.2 µM (inactive)
same,GI50,EKVX,26.1 µM (inactive)
same,GI50,NCI/ADR-RES,23.3 µM (inactive)
same,GI50,CCRF-CEM,16 µM (inactive)
same,GI50,HCT-15,18.2 µM
same,GI50,UACC-62,16.9 µM (inactive)
same,GI50,SNB-75,20.1 µM (inactive)
same,GI50,SF-295,16 µM (inactive)
N#Cc1c2c(c(-c3cccs3)n(C3OC(CO)C(O)C(O)C3O)c1=S)CCc1ccccc1-2 (stereo unspecified),GI50,SR,5.82 µM (inactive) and 4.76 µM (inactive)
same,GI50,UACC-257,> 43.8 µM (inactive) and > 51.2 µM (inactive)
same,GI50,IGROV-1,97.9 µM (inactive) and > 86.3 µM (inactive)
same,GI50,UO-31,3.04 µM (inactive)
same,GI50,TK-10,> 29 µM (inactive) and > 20.8 µM (inactive)
same,GI50,RXF 393,24.3 µM (inactive) and 23 µM (inactive)
same,GI50,LOX IMVI,> 22.3 µM (inactive) and > 22.2 µM (inactive)
same,GI50,HL-60,> 20.9 µM (inactive)
same,GI50,NCI-H226,> 100 µM (inactive)
same,GI50,DU-145,> 100 µM (inactive)
same,GI50,K562,6.58 µM (inactive) and 4.93 µM (inactive)
same,GI50,SK-OV-3,7.67 µM (inactive) and 7.45 µM (inactive)
same,GI50,SN12C,> 26.7 µM (inactive) and > 21.7 µM (inactive)
same,GI50,MCF7,5.42 µM (inactive) and 3.85 µM (inactive)
same,GI50,CAKI-1,6.65 µM (inactive) and 6.14 µM (inactive)
same,GI50,SK-MEL-2,> 100 µM (inactive) and > 56.8 µM (inactive)
same,GI50,OVCAR-8,97.5 µM (inactive) and > 87.7 µM (inactive)
same,GI50,PC-3,46.3 µM (inactive) and 28.4 µM (inactive)
same,GI50,OVCAR-5,> 100 µM (inactive)
same,GI50,SNB-19,> 100 µM (inactive) and 98.2 µM (inactive)
same,GI50,Hs-578T,8.97 µM (inactive) and 5.97 µM (inactive)
same,GI50,KM12,> 45.6 µM (inactive) and 38.2 µM (inactive)
same,GI50,U-251,37.2 µM (inactive) and 21.4 µM (inactive)
same,GI50,BT-549,> 100 µM (inactive)
same,GI50,MDA-N,6.4 µM (inactive) and 4.23 µM (inactive)
same,GI50,MOLT-4,8.32 µM (inactive) and 14.3 µM (inactive)
same,GI50,SK-MEL-28,> 100 µM (inactive)
same,GI50,Malme-3M,66.2 µM (inactive) and 35.6 µM (inactive)
same,GI50,OVCAR-4,29.8 µM (inactive) and > 39 µM (inactive)
same,GI50,COLO 205,30 µM (inactive) and 40 µM (inactive)
same,GI50,HCC 2998,59.8 µM (inactive) and > 41.5 µM (inactive)
same,GI50,MDA-MB-435,3.36 µM (inactive) and 3.44 µM (inactive)
same,GI50,SW-620,> 100 µM (inactive)
same,GI50,OVCAR-3,20.8 µM (inactive) and 22.5 µM (inactive)
same,GI50,EKVX,> 24.9 µM (inactive)
same,GI50,CCRF-CEM,> 57.8 µM (inactive) and 36.8 µM (inactive)
same,GI50,HCT-15,7.03 µM and 6.32 µM
same,GI50,UACC-62,5.64 µM (inactive) and 7.8 µM (inactive)
same,GI50,SF-295,27.6 µM (inactive) and 48.6 µM (inactive)
O=C1NC2ON=C(c3ccccc3)C2C2ON=C(c3ccccc3)N12 (stereo unspecified),GI50,NCI-H522,40.5 µM (inactive)
same,GI50,UACC-257,> 100 µM (inactive)
same,GI50,IGROV-1,54.3 µM (inactive)
same,GI50,M14,> 100 µM (inactive)
same,GI50,UO-31,> 100 µM (inactive)
same,GI50,TK-10,> 100 µM (inactive)
same,GI50,RXF 393,> 100 µM (inactive)
same,GI50,LOX IMVI,90.4 µM (inactive)
same,GI50,NCI-H23,> 100 µM (inactive)
same,GI50,NCI-H226,> 100 µM (inactive)
same,GI50,DU-145,> 100 µM (inactive)
same,GI50,SK-OV-3,> 100 µM (inactive)
same,GI50,MCF7,77.4 µM (inactive)
same,GI50,MDA-MB-231,> 100 µM (inactive)
same,GI50,SK-MEL-5,54 µM (inactive)
same,GI50,SF-268,> 100 µM (inactive)
same,GI50,CAKI-1,> 100 µM (inactive)
same,GI50,NCI-H460,> 100 µM (inactive)
same,GI50,OVCAR-8,64.6 µM (inactive)
same,GI50,PC-3,72.4 µM (inactive)
same,GI50,OVCAR-5,> 100 µM (inactive)
same,GI50,SNB-19,92 µM (inactive)
same,GI50,Hs-578T,63.2 µM (inactive)
same,GI50,KM12,69.2 µM (inactive)
same,GI50,BT-549,> 100 µM (inactive)
same,GI50,786-0,> 100 µM (inactive)
same,GI50,A549,> 100 µM (inactive)
same,GI50,MDA-N,39.6 µM (inactive)
same,GI50,HOP-62,> 100 µM (inactive)
same,GI50,Malme-3M,> 100 µM (inactive)
same,GI50,COLO 205,> 100 µM (inactive)
same,GI50,HCC 2998,> 100 µM (inactive)
same,GI50,ACHN,> 100 µM (inactive)
same,GI50,SF-539,> 100 µM (inactive)
same,GI50,HT-29,41.2 µM (inactive)
same,GI50,OVCAR-3,> 100 µM (inactive)
same,GI50,EKVX,> 100 µM (inactive)
same,GI50,NCI/ADR-RES,45.9 µM (inactive)
same,GI50,HCT-15,43.4 µM
same,GI50,UACC-62,> 100 µM (inactive)
same,GI50,SNB-75,> 100 µM (inactive)
same,GI50,SF-295,> 100 µM (inactive)
